We go through two compounds from patent US5498522A, “Methods for the use of spermidine/spermine N^1 -acetyltransferase as a prognostic indicator and/or a tumor response marker” (priority 1993, dated 1996).

Values joined by “and” are separate entries in the source; they are usually repeats but may differ in a detail not shown here. Identical values can stand only once. “Also recorded” adds a separate entry of the source. Some results are limits rather than exact numbers.

For assay [1], the system named is SH-1 human melanoma xenografts. Put plainly: antitumor response against SH-1 human melanoma xenografts in mice. It is filed as in vivo. Conditions: SH-1, BENSPM at 80 mg/kg. The procedure:
(§1) […] where 1 represents length; w--width; and h--height. Tumor sizes were monitored 2 times/week until the median volume (V=0.4(a^2 ×b) where a is the smaller of the two perpendicular tumor diameters). As an indication of drug toxicity, animal weights were also recorded at the time of tumor volume measurement. Statistical analyses were performed on mouse tumor size and weight parameters by using the Mann-Whitney test.
(§2) Tumor growth suppression was measured by plotting the mean tumor volume versus the number of days post-inoculation with polyamine analog (growth curve analyses). Suppression is determined by comparison with the growth of untreated tumors (%T/C). More specifically,: %T/C is (treated tumor volume minus pretreatment volume) divided by (control tumor volume minus pretreatment volume)×100. Typically this is measured either when the control tumor volume reaches 1000 mm^3, or at the last day of treatment.
(§3) Tumor regression is measured as a percentage representing the average percentage of decrease in tumor volume from the largest pretreatment volume value.
(§4) Repression of regrowth is represented as regrowth delay, determined as the number of days following cessation of treatment when median group tumor volume exceeds 200 mm^3 (an arbitrary indication of regrowth which was determined statistically).
(§5) For example, human melanoma cell lines including MALME-3, SH-1, PANUT-3 and LOX were evaluated for the level of SSAT induction and potency of antitumor response following BENSPM treatment (80 mg/kg 3×/day×6 days) using the methodology previously described in this embodiment. […] The baseline of SSAT activity in the control mice (2 examined of 7 mice) ranged from 50 to 90 pmol/min/mg. […] Note that following BENSPM treatment (as discussed above in the context of Tables 4 and 5), suppression of tumor growth of PANUT-3, unlike suppression of MALME-3 growth, lasted for only about 12 days. Further, the levels of SSAT in PANUT-3 at two weeks post-treatment, approached the levels in the control and correlated with the loss of antitumor activity.
A general note: Xenograft models place foreign cells or tissue in a host animal.

The test system of assay [2] is PANUT-3 human melanoma xenografts. The experiment in a line: antitumor response against PANUT-3 human melanoma xenografts in mice. In kind it is in vivo. The procedure:
as §1, §2, §3, §4, §5

The subject of assay [3] is LOX human melanoma xenografts. Put plainly: antitumor response against LOX human melanoma xenografts in mice. It is filed as in vivo. The procedure: as §1, §2, §3, §4
For example, SSAT activity and potency of antitumor response was examined for LOX and MALME-3 melanoma xenografts in mice. Mice developing palpable tumors of a similar size were divided into different treatment groups comprising 7 mice per treatment group, and 7 control mice per treatment group. The treated mice received 40 mg/kg of BENSPM administered every 8 hours for a 5 day period. Melanoma tumor cells comprising the human xenografts were removed from two mice of each group at 16 hours following the final BENSPM injection to evaluate the level of induction of SSAT activity. The antitumor response from polyamine analog therapy was assessed in the five remaining mice from each group by monitoring the tumor volume of the xenografts over days following treatment as compared to untreated xenografts.
as §5

In assay [4] the test system is A549 lung adenocarcinoma xenografts. Put plainly: antitumor response against A549 lung adenocarcinoma xenografts in mice. It is filed as in vivo, human. The procedure: as §1, §2, §3, §4
(§6) Cells from malignant solid human tumor tissue types, other than melanoma, have also been evaluated for their responsiveness to polyamine analog treatment including clonal cell lines A121 (human ovarian adenocarcinoma),A549 (lung adenocarcinoma), and HT29 colon adenocarcinoma). These cell lines were evaluated for the level of SSAT induction and potency of antitumor response following BENSPM treatment (80 mg/kg 3×/day×6 days) in-vivo using the methodology previously described in this embodiment. Also, dose of BENSPM was compared (80 mg/kg versus 40 mg/kg). The baseline of SSAT activity in the control mice (2 of 7 mice) ranged from 40 to 90 pmol/min/mg. Tumor cells from the human xenografts A121, A549, and HT29 were removed from two mice of each treated group of seven mice containing the respective xenograft at 16 hours following the final BENSPM injection to evaluate the level of induction of SSAT activity. […] The response to the polyamine analog was heterotypic. […] As discussed previously, it is not known whether the heterotypic antitumor response may be due to either the individual properties of the clonal line or the particular solid tumor type.

The test system of assay [5] is HT29 colon adenocarcinoma xenografts. The experiment in a line: antitumor response against HT29 colon adenocarcinoma xenografts in mice. It is filed as in vivo, human. The procedure: as §1, §2, §3, §4, §6
The test system of a further assay is human tumor xenografts. The experiment in a line: antitumor efficacy in-vivo (general statement). The conditions noted are these: compared to other bis-ethyl spermine analogs.
The next assay has as its system LOX melanoma cells. Put plainly: N^1 -acetylspermidine in LOX cell cultures. The conditions noted are these: 10 μm BESPM, 48 hours. In kind it is cell-based, human. The protocol:
To illustrate this embodiment, LOX and MALME-3 cell cultures were treated for 48 hours with 10 μm BESPM. The cells from each culture were harvested and assayed for SSAT activity. Media samples were prepared by treating the samples with 50% trichloroacetic acid to give a final concentration of 10% and then centrifuged at 15,000×g for 10 minutes. The supernatant was then filtered through a 0.22-μm filter, extracted with several volumes of ether, lyophilized, and resuspended in 10% trichloroacetic acid. N^1 -acetylspermidine levels of cells and media samples were then measured by use of high-pressure liquid chromatography. […] Similarly, N^1 -acetylspermidine levels from MALME-3 control cells, media from control cell cultures, and treated MALME-3 cells contained minimal levels of N^1 -acetylspermidine.

The test system of another assay is cell growth. The conditions noted are these: in-vitro; cited from earlier work.
Another assay concerns polyamine uptake. The conditions noted are these: cited from earlier work.
Setting [6] is: A549, BENSPM 80 mg/kg 3x/d × 6d.
Where [7] appears, read: A549 xenograft, 80 mg/kg 3×/day×6 days.
Setting [8] is: HT29, BENSPM 80 mg/kg 3x/d × 6d.

Take `CCNCCCNCCCNCCCNCC` [BENSPM, N^1,N^11 -bis(ethyl)norspermine]: the “% T/C at 1 g” value in assay [1] is less than 0%; in assay [2] (PANUT-3, BENSPM at 80 mg/kg) it was 10%; in assay [3] (LOX, BENSPM at 80 mg/kg) it was 40%; in assay [4] (setting [6]) it was 13%; in assay [5] (setting [8]) it was 24%. The “Tumor Regression” value in [1] was “Present”; in assay [2] (PANUT-3, BENSPM at 80 mg/kg), “Major”; in assay [3] (LOX, BENSPM at 80 mg/kg) it was “None”; in assay [4] (setting [6]) it was “no measurable tumor regression and None”; in assay [5] (setting [8]), “no measurable tumor regression and None”. In addition, the “Regrowth Delay” value in assay [1] (dt 15 days) is 2.1 × dt; in assay [2] (PANUT-3, BENSPM at 80 mg/kg, dt 7 days) it was 2.7 × dt; in assay [3] (LOX, BENSPM at 80 mg/kg, dt 5 days) it was “None”; in assay [4] (A549, BENSPM 80 mg/kg 3x/d × 6d, dt 10 days), 8.5 × dt; in assay [5] (HT29, BENSPM 80 mg/kg 3x/d × 6d, dt 3.5 days) it was “None”. The “No Regrowth” value was 1/5 in assay [1] (for duration of experiment); 0/5 in assay [2] (PANUT-3, BENSPM at 80 mg/kg, for duration of experiment); 0/5 in [3] (LOX, BENSPM at 80 mg/kg, for duration of experiment); 2/5 in [4] (A549, BENSPM 80 mg/kg 3x/d × 6d, for duration of experiment); “two of five mice examined showed no regrowth and 2/5” in [5] (HT29, BENSPM 80 mg/kg 3x/d × 6d, for duration of experiment). Besides, in assay [2] (BENSPM 80 mg/kg 3×/day×6 days), the “tumor regression, PANUT-3 versus MALME-3” value is on record as “significantly more tumor regression”. In assay [2] (PANUT-3 xenograft, following BENSPM treatment), the “duration of suppression of tumor growth” value is listed as “about 12 days”. The “tumor regression, regrowth delay, lack of regrowth (FIG. 6)” value in [3] (LOX xenograft, 40 mg/kg every 8 hours for 5 days) is listed as “no significant tumor regression, regrowth delay, nor lack of regrowth”. Further, the “growth suppression after cessation of treatment” value in assay [4] (setting [7]) came out at 85 days. Besides, in assay [4] (setting [7]), the tumor regrowth result is recorded as “minimal tumor regrowth”. Also, in assay [5] (HT29 xenograft, 80 mg/kg 3×/day×6 days), the growth rate result is “reduced growth rate”. In the assay on human tumor xenografts, the “antitumor efficacy / activity, relative” value is “most potent antitumor efficacy; also recorded: most potent antitumor activity”.
With `CCNCCCNCCCCNCCCNCC` [BESPM, N^1,N^12-bis(ethyl)spermine], in the assay with LOX melanoma cells, the “N^1 -acetylspermidine Extracellular” value was less than 0.1 nmol/culture and the “N^1 -acetylspermidine Intracellular” value was less than 0.1 nmol/culture. In the assay with cell growth, the “concentration inhibiting cell growth” value was 1 to 10 µM. Moreover, the polyamine uptake result in the assay on polyamine uptake was “suppresses polyamine uptake”.
